Assays:
Type in all cases: biochemical
CHEK2 = CHEK2 (Homo sapiens, UniProt O96017); assay: Kinome profiling CHEK2; settings: read-out: Inhibitory activity CHEK2; for inhibition at 0.1 µM: 100 nM
Protocol: (§1) . The kinome-wide selectivity was determined following the methods previously reported by Mohedas et al., ACS Chem Biol 2013, 8, 1291-1302 and Sanvitale et al., PLoS One 2013, 8, e62721.

TRKA = TRKA (Homo sapiens, UniProt P04629); assay: Kinome profiling TRKA; settings: read-out: Inhibitory activity TRKA; for inhibition at 0.1 µM: 100 nM
TRKA, sequence (P04629 33-796): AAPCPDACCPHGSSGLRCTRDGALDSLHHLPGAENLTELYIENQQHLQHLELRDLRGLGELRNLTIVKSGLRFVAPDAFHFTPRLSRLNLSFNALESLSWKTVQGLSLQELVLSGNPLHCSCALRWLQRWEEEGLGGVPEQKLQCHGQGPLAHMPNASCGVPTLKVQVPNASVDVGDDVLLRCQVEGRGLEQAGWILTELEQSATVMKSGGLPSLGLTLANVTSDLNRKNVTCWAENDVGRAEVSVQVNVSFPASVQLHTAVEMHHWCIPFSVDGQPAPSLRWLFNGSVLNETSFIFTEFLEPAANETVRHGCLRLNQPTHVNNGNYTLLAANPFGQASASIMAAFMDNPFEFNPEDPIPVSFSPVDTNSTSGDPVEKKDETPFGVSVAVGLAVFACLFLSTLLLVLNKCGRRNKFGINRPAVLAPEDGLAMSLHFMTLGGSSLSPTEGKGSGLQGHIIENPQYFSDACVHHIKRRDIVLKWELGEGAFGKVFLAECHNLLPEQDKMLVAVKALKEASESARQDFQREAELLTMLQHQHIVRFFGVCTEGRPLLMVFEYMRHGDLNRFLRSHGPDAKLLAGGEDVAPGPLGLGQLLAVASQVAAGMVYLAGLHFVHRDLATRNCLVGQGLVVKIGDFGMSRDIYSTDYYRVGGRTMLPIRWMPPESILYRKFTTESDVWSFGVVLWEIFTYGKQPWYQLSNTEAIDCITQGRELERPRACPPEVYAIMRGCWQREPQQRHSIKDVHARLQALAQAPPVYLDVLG
Protocol: as §1

MRCK-α = MRCK-α (Homo sapiens, UniProt Q5VT25); assay: Kinome profiling MRCK-α; settings: read-out: Inhibitory activity MRCK-α; for inhibition at 0.1 µM: 100 nM
Protocol: as §1

TYK2 = TYK2 (Homo sapiens, UniProt P29597); assay: Kinome profiling TYK2; settings: read-out: Inhibitory activity TYK2; for inhibition at 0.1 µM: 100 nM
TYK2, sequence (P29597 whole entry): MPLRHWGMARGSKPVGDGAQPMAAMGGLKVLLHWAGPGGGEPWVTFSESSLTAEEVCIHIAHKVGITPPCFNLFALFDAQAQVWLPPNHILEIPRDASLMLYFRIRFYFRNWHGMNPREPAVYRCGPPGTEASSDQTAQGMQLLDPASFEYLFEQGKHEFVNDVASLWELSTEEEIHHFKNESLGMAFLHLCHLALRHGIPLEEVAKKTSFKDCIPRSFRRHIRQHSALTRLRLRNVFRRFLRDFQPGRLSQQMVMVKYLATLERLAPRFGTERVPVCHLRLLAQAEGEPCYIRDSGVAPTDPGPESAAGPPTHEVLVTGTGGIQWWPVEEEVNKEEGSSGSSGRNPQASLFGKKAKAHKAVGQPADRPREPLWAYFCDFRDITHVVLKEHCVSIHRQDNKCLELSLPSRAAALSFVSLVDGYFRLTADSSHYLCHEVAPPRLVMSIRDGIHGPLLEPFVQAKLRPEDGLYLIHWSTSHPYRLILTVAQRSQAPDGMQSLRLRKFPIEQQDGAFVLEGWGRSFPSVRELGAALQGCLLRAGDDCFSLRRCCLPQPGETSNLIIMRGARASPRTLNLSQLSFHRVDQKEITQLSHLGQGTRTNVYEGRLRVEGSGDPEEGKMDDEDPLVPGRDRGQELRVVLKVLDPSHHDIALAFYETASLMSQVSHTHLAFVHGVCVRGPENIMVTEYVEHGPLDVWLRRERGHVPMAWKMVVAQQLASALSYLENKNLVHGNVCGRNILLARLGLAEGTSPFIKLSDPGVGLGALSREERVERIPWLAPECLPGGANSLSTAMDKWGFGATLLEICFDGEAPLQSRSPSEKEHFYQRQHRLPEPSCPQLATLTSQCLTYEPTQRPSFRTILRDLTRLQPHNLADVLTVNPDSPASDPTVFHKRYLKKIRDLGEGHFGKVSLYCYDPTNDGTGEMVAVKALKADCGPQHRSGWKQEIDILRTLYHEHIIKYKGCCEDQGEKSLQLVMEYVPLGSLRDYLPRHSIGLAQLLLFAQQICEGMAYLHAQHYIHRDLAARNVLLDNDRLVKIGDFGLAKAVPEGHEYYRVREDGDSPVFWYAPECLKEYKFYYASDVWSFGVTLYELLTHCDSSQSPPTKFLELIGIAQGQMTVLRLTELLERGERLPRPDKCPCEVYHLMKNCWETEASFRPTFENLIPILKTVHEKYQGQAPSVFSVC
Protocol: as §1

MSK1 = MSK1 (Homo sapiens, UniProt O75582); assay: Kinome profiling MSK1; settings: read-out: Inhibitory activity MSK1; for inhibition at 0.1 µM: 100 nM
MSK1, sequence (O75582 whole entry): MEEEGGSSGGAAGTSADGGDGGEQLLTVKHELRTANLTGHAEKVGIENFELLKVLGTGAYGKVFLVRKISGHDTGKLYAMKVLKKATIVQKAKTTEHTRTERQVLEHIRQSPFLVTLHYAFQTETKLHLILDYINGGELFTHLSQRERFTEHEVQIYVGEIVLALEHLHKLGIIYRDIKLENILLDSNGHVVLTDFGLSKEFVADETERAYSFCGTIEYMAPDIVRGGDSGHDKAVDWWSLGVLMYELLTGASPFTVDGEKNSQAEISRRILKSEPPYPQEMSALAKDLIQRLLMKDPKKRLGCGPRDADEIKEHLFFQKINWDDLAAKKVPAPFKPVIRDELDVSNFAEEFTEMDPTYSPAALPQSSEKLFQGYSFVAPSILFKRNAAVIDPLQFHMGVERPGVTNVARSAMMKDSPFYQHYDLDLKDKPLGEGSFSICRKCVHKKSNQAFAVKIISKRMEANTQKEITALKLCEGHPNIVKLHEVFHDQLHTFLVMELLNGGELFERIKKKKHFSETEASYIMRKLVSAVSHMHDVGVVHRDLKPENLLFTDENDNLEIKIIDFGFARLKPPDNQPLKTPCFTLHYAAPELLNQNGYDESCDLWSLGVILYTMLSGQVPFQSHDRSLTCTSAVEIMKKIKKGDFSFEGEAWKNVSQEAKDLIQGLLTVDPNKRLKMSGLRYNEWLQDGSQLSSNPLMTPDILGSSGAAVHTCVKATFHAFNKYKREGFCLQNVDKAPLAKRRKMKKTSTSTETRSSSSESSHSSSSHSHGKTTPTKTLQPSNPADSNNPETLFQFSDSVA
Protocol: as §1

AKT1 = AKT1 (Homo sapiens, UniProt P31749); assay: Kinome profiling AKT1; settings: read-out: Inhibitory activity AKT1; for inhibition at 0.1 µM: 100 nM
AKT1, sequence (P31749 whole entry): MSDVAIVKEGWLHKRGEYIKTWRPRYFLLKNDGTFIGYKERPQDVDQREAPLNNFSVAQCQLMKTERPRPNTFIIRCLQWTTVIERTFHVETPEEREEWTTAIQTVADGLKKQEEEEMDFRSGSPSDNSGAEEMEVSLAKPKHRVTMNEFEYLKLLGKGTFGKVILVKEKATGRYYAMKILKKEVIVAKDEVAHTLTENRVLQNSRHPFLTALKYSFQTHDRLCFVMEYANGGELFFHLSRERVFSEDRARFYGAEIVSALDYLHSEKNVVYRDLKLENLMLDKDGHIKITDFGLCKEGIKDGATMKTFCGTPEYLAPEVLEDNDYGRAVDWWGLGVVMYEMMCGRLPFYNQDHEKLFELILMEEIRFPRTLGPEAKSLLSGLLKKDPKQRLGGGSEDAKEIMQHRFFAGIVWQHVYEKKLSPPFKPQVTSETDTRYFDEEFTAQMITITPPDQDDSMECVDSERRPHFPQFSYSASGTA
Protocol: as §1

INSR = INSR (Homo sapiens, UniProt P06213); assay: Kinome profiling INSR; settings: read-out: Inhibitory activity INSR; for inhibition at 0.1 µM: 100 nM
Protocol: as §1

TYRO3 = target: T1, TYRO3 (Homo sapiens, UniProt Q06418); assay: Kinome profiling TYRO3; settings: read-out: Inhibitory activity TYRO3; for inhibition at 0.1 µM: 100 nM
T1 sequence (Q06418 41-890): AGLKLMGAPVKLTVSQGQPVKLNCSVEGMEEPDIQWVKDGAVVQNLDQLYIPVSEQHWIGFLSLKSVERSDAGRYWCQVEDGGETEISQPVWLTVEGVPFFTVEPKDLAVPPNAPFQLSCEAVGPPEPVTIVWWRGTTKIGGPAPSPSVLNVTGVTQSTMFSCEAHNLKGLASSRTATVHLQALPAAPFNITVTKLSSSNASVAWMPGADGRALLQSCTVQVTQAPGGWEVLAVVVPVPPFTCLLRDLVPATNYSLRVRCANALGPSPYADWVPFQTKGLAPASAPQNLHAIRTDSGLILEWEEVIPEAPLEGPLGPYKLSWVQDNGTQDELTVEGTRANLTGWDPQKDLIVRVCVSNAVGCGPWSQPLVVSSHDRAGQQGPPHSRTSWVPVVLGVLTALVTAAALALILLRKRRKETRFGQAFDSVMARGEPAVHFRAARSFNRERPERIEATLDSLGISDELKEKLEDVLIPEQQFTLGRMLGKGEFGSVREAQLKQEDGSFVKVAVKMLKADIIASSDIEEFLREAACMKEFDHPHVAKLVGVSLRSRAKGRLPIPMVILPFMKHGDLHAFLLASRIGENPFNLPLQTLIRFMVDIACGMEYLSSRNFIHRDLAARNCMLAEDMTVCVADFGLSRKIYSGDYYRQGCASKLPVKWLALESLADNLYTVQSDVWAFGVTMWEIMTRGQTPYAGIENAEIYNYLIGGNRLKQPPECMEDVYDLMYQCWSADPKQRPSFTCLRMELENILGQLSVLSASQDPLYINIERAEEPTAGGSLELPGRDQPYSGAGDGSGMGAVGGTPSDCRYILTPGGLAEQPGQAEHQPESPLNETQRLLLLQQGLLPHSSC
Protocol: as §1

PKC-β1 = PKC-β1 (Homo sapiens, UniProt P05771); assay: Kinome profiling PKC-β1; settings: read-out: Inhibitory activity PKC-β1; for inhibition at 0.1 µM: 100 nM
PKC-β1, sequence (P05771 whole entry): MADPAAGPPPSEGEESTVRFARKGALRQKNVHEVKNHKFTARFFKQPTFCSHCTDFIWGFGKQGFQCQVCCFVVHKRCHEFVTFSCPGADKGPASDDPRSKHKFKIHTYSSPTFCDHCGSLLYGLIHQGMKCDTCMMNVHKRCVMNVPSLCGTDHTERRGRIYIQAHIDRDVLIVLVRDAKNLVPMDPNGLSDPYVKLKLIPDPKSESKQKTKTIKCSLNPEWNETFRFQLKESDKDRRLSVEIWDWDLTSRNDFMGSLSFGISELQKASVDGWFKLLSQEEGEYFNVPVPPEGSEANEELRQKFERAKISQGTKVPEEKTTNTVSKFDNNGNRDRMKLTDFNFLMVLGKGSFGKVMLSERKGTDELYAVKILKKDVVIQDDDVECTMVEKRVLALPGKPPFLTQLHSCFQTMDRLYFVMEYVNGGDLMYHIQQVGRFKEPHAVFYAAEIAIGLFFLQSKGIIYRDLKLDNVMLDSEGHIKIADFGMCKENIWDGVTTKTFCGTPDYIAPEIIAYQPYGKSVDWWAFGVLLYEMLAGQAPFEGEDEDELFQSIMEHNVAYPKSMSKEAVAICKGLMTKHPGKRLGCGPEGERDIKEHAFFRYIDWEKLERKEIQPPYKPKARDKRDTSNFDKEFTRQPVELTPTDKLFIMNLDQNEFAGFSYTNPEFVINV
Protocol: as §1

DYRK1A = DYRK1A (Homo sapiens, UniProt Q13627); assay: Kinome profiling DYRK1A; settings: read-out: Inhibitory activity DYRK1A; for inhibition at 0.1 µM: 100 nM
Protocol: as §1

PLK1 = PLK1 (Homo sapiens, UniProt P53350); assay: Kinome profiling PLK1; settings: read-out: Inhibitory activity PLK1; for inhibition at 0.1 µM: 100 nM
Protocol: as §1

TTK = target: T2, TTK (Homo sapiens, UniProt P33981); assay: Kinome profiling TTK; settings: read-out: Inhibitory activity TTK; for inhibition at 0.1 µM: 100 nM
T2 sequence (P33981 1-857): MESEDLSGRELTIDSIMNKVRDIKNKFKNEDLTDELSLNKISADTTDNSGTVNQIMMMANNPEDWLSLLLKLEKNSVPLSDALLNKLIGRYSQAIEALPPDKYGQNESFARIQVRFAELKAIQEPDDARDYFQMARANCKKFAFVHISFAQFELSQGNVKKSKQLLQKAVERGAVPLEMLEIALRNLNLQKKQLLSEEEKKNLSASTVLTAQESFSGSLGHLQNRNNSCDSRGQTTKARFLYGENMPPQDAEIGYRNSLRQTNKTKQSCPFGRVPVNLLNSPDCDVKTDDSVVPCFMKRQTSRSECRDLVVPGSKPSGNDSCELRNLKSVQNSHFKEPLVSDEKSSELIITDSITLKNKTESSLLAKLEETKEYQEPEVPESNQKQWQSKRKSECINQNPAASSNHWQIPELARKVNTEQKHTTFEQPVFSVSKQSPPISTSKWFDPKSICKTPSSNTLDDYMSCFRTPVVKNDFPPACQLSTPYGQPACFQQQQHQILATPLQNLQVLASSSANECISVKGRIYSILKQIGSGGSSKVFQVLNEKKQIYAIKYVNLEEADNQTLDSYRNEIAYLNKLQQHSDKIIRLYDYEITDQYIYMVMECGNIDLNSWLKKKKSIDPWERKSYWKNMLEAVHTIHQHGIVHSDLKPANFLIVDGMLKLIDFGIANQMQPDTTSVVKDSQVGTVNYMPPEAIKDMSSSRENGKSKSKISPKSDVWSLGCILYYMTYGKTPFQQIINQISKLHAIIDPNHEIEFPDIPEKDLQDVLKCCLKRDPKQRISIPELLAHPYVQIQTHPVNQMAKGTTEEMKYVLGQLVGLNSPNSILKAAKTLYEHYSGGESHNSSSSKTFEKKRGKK
Protocol: as §1

CAMK2α = CAMK2α (Homo sapiens, UniProt Q9UQM7); assay: Kinome profiling CAMK2α; settings: read-out: Inhibitory activity CAMK2α; for inhibition at 0.1 µM: 100 nM
CAMK2α, sequence (Q9UQM7 whole entry): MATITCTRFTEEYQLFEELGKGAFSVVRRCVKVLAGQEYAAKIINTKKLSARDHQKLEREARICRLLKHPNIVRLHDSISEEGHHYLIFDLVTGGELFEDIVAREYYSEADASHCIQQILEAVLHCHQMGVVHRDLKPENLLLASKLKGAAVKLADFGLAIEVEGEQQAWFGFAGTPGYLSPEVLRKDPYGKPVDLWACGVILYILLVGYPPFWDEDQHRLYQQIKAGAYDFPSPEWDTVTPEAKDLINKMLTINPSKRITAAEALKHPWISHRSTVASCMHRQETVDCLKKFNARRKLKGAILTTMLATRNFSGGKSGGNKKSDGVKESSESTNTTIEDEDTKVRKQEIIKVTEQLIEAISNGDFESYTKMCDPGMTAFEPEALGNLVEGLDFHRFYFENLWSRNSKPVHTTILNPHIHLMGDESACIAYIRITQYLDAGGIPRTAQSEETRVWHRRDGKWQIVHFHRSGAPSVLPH
Protocol: as §1

CHEK2, sequence (O96017 whole entry): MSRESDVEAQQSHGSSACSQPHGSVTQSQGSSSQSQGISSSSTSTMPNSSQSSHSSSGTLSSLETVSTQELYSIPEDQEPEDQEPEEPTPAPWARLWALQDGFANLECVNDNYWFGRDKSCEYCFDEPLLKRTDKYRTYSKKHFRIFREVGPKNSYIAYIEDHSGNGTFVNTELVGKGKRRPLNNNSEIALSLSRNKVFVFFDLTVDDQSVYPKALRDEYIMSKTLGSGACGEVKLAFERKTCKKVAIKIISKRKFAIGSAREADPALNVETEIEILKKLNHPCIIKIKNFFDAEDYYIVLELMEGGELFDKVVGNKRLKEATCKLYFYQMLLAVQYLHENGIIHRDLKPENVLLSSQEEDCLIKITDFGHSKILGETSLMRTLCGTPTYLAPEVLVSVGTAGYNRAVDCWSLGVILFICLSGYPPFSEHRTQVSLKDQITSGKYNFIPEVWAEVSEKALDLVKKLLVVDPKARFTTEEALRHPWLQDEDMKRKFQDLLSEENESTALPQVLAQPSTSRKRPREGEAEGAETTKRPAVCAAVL

With `COc1cc(-c2cc(-c3ccc(N4CCNCC4)cc3)cnc2N)cc(OC)c1OC` [Compound 15, 5-(4-(piperazin-1-yl)phenyl)-3-(3,4,5-trimethoxyphenyl)pyridin-2-amine] as the molecule, how does the inhibition at 0.1 µM (CHEK2) read?
The inhibition at 0.1 µM was 2%.

And the inhibition at 1 µM (CHEK2)?
Its inhibition at 1 µM is 7%.

And the inhibition at 0.1 µM (TRKA)?
The inhibition at 0.1 µM was 5%.

And the inhibition at 1 µM (TRKA)?
The inhibition at 1 µM was 5%.

And the inhibition at 0.1 µM (MRCK-α)?
Its inhibition at 0.1 µM is 6%.

What about the inhibition at 1 µM (MRCK-α) of the same molecule?
The inhibition at 1 µM was 50%.

And the inhibition at 0.1 µM (TYK2)?
The inhibition at 0.1 µM was 0%.

And the inhibition at 1 µM (TYK2)?
Its inhibition at 1 µM is 0%.

And the inhibition at 0.1 µM (MSK1)?
The inhibition at 0.1 µM was 0%.

What about the inhibition at 1 µM (MSK1) of the same molecule?
The inhibition at 1 µM was 0%.

What about the inhibition at 0.1 µM (AKT1) of the same molecule?
The inhibition at 0.1 µM was 0%.

And the inhibition at 1 µM (AKT1)?
Its inhibition at 1 µM is 2%.

And the inhibition at 0.1 µM (INSR)?
The inhibition at 0.1 µM was 4%.

What about the inhibition at 1 µM (INSR) of the same molecule?
The inhibition at 1 µM was 8%.

And the inhibition at 0.1 µM (TYRO3)?
The inhibition at 0.1 µM was 23%.

What about the inhibition at 1 µM (TYRO3) of the same molecule?
The inhibition at 1 µM was 75%.

And the inhibition at 0.1 µM (PKC-β1)?
The inhibition at 0.1 µM was 0%.

And the inhibition at 1 µM (PKC-β1)?
Its inhibition at 1 µM is 0%.

What about the inhibition at 0.1 µM (DYRK1A) of the same molecule?
The inhibition at 0.1 µM was 2%.

And the inhibition at 1 µM (DYRK1A)?
Its inhibition at 1 µM is 5%.

And the inhibition at 0.1 µM (PLK1)?
The inhibition at 0.1 µM was 3%.

And the inhibition at 1 µM (PLK1)?
Its inhibition at 1 µM is 1%.

What about the inhibition at 0.1 µM (TTK) of the same molecule?
The inhibition at 0.1 µM was 13%.

And the inhibition at 1 µM (TTK)?
The inhibition at 1 µM was 18%.

And the inhibition at 0.1 µM (CAMK2α)?
Its inhibition at 0.1 µM is 1%.

What about the inhibition at 1 µM (CAMK2α) of the same molecule?
The inhibition at 1 µM was -1%.

`COc1cc(-c2cc(-c3ccc(N4CCNCC4)cc3)cnc2C)cc(OC)c1OC` [Compound 10, 1-(4-(6-methyl-5-(3,4,5-trimethoxyphenyl)pyridin-3-yl)phenyl)piperazine] was tested. Which inhibition at 0.1 µM (CHEK2) did it give?
The inhibition at 0.1 µM was 1%.

And the inhibition at 1 µM (CHEK2)?
The inhibition at 1 µM was 8%.

What about the inhibition at 0.1 µM (TRKA) of the same molecule?
The inhibition at 0.1 µM was 2%.

What about the inhibition at 1 µM (TRKA) of the same molecule?
The inhibition at 1 µM was 1%.

And the inhibition at 0.1 µM (MRCK-α)?
Its inhibition at 0.1 µM is -1%.

What about the inhibition at 1 µM (MRCK-α) of the same molecule?
The inhibition at 1 µM was 2%.

And the inhibition at 0.1 µM (TYK2)?
The inhibition at 0.1 µM was 2%.

And the inhibition at 1 µM (TYK2)?
Its inhibition at 1 µM is 1%.

What about the inhibition at 0.1 µM (MSK1) of the same molecule?
The inhibition at 0.1 µM was 1%.

What about the inhibition at 1 µM (MSK1) of the same molecule?
The inhibition at 1 µM was 0%.

What about the inhibition at 0.1 µM (AKT1) of the same molecule?
Its inhibition at 0.1 µM is 0%.

And the inhibition at 1 µM (AKT1)?
The inhibition at 1 µM was 0%.

And the inhibition at 0.1 µM (INSR)?
Its inhibition at 0.1 µM is 3%.

What about the inhibition at 1 µM (INSR) of the same molecule?
The inhibition at 1 µM was 3%.

And the inhibition at 0.1 µM (TYRO3)?
Its inhibition at 0.1 µM is 4%.

What about the inhibition at 1 µM (TYRO3) of the same molecule?
Its inhibition at 1 µM is 21%.

And the inhibition at 0.1 µM (PKC-β1)?
The inhibition at 0.1 µM was 0%.

What about the inhibition at 1 µM (PKC-β1) of the same molecule?
The inhibition at 1 µM was 1%.

What about the inhibition at 0.1 µM (DYRK1A) of the same molecule?
The inhibition at 0.1 µM was 3%.

And the inhibition at 1 µM (DYRK1A)?
Its inhibition at 1 µM is 5%.

What about the inhibition at 0.1 µM (PLK1) of the same molecule?
Its inhibition at 0.1 µM is 4%.

And the inhibition at 1 µM (PLK1)?
The inhibition at 1 µM was 3%.

And the inhibition at 0.1 µM (TTK)?
The inhibition at 0.1 µM was 3%.

What about the inhibition at 1 µM (TTK) of the same molecule?
Its inhibition at 1 µM is 4%.

And the inhibition at 0.1 µM (CAMK2α)?
Its inhibition at 0.1 µM is -1%.

And the inhibition at 1 µM (CAMK2α)?
Its inhibition at 1 µM is -1%.
